Assay results as given in US20070128217A1 (priority 2003, published 2007).

How the values were obtained:
[1] = tested on: rabbit serum obtained by immunizing a rabbit with the SARS-CoV strain Frankfurt 1; assay type: binding; design: Binding of a rabbit serum to linear peptides / Binding of a rabbit serum to looped peptides / Rabbit serum linear peptides / Rabbit serum looped peptides / Binding of a rabbit serum to linear peptides of protein N of SARS-CoV Urbani (Rabbit serum linear peptides) / Binding of a rabbit serum to looped/cyclic peptides of protein N of SARS-CoV Urbani (Rabbit serum looped peptides): unit not given here
[2] = tested on: control sera (pooled serum of ten healthy LUMC hospital workers; commercial negative donor pooled serum from the Dutch bloodbank); assay type: binding, human; design: Binding of Control serum LUMC to linear peptides / Binding of Control serum Blood-bank to linear peptides / Binding of Control serum LUMC to looped peptides / Binding of Control Serum Blood-Bank to Looped peptides / Binding of Control serum LUMC to linear peptides of the protein M of SARS-CoV Urbani / Binding of Control serum Blood-bank to linear peptides of the protein M of SARS-CoV Urbani / Binding of Control serum LUMC to looped peptides of the protein M of SARS-CoV Urbani / Binding of Control Serum Blood-Bank to Looped peptides of the protein M of SARS-CoV Urbani: unit not given here
[3] = tested on: antibodies in sera from SARS patients (sera 1a, 1b, 2, 6, 37, 62, London, SARS-yellow, SARS-green); assay type: binding, human; design: Binding of serum 6 to linear peptides of protein X1 of SARS-CoV Urbani / Binding of serum 37 to linear peptides of protein X1 of SARS-CoV Urbani / Binding of serum 6 to looped/cyclic peptide (PEPSCAN-ELISA) / Binding of serum 37 to looped/cyclic peptide (PEPSCAN-ELISA) / Binding of serum 37 to looped/cyclic peptides of protein X1 of SARS-CoV Urbani / Binding of serum 6 to linear peptides of protein X2 / Binding of serum 37 to linear peptides of protein X2 / Binding of serum 37 to looped/cyclic peptides of protein X2 of SARS-CoV Urbani / Binding of serum 6 to linear peptides of protein M of SARS-CoV Urbani / Binding of serum 37 to linear peptides of protein M of SARS-CoV Urbani / Binding of serum 6 to looped/cyclic peptides of protein M of SARS-CoV Urbani / Binding of serum 37 to looped/cyclic peptides of protein M of SARS-CoV Urbani / Binding of serum 6 to linear peptides of protein X3 of SARS-CoV Urbani / Binding of serum 37 to linear peptides of protein X3 of SARS-CoV Urbani / Binding of serum 37 to looped/cyclic peptides of protein X3 of SARS-CoV Urbani / Binding of serum 6 to linear peptides of protein X4 of SARS-CoV Urbani / Binding of serum 37 to linear peptides of protein X4 of SARS-CoV Urbani / Binding of serum 37 to looped/cyclic peptides of protein X4 of SARS-CoV Urbani / Binding of serum 6 to linear peptides of protein X5 of SARS-CoV Urbani / Binding of serum 37 to linear peptides of protein X5 of SARS-CoV Urbani / Binding of serum 37 to looped/cyclic peptides of protein X5 of SARS-CoV Urbani / Binding of serum 6 to linear peptides of protein N of SARS-CoV Urbani / Binding of serum 37 to linear peptides of protein N of SARS-CoV Urbani / Binding of serum 6 to linear peptide (PEPSCAN-ELISA) / Binding of serum 1a to looped/cyclic peptides of protein N of SARS-CoV Urbani / Binding of serum 1b to looped/cyclic peptides of protein N of SARS-CoV Urbani / Binding of serum 2 to looped/cyclic peptides of protein N of SARS-CoV Urbani / Binding of serum 6 to looped/cyclic peptides of protein N of SARS-CoV Urbani / Binding of serum 37 to looped/cyclic peptides of protein N of SARS-CoV Urbani / Binding of serum 62 to looped/cyclic peptides of protein N of SARS-CoV Urbani / Binding of serum London to looped/cyclic peptides of protein N of SARS-CoV Urbani / Binding of serum SARS-green to looped/cyclic peptides of protein N of SARS-CoV Urbani: unit not given here

| Sequence | Binding of a rabbit serum to linear peptides [1] | Binding of a rabbit serum to looped peptides [1] | Binding of Control Serum Blood-Bank to Looped peptides [2] | Binding of Control serum Blood-bank to linear peptides [2] | Binding of Control serum LUMC to linear peptides [2] | Binding of Control serum LUMC to looped peptides [2] | Binding of serum 1a to linear peptides of protein X1 of SARS-CoV Urbani [3] | Binding of serum 1a to looped/cyclic peptide (PEPSCAN-ELISA) [3] | Binding of serum 1b to linear peptides of protein X1 of SARS-CoV Urbani [3] | Binding of serum 1b to looped/cyclic peptide (PEPSCAN-ELISA) [3] | Binding of serum 2 to linear peptides of protein X1 of SARS-CoV Urbani [3] | Binding of serum 2 to looped/cyclic peptide (PEPSCAN-ELISA) [3] | Binding of serum 6 to linear peptides of protein X1 of SARS-CoV Urbani [3] | Binding of serum 6 to looped/cyclic peptide (PEPSCAN-ELISA) [3] | Binding of serum 37 to linear peptides of protein X1 of SARS-CoV Urbani [3] | Binding of serum 37 to looped/cyclic peptide (PEPSCAN-ELISA) [3] | Binding of serum 62 to linear peptides of protein X1 of SARS-CoV Urbani [3] | Binding of serum 62 to looped/cyclic peptide (PEPSCAN-ELISA) [3] | Binding of serum London to linear peptides of protein X1 of SARS-CoV Urbani [3] | Binding of serum London to looped/cyclic peptide (PEPSCAN-ELISA) [3] | other results |
| --- | --- | --- | --- | --- | --- | --- | --- | --- | --- | --- | --- | --- | --- | --- | --- | --- | --- | --- | --- | --- | --- |
| QASLPFGWLVIGVAF | 0.3 | 0.4 | 0.4 | 0.7 | 0.6 | 0.4 | 0.7 | 0.4 | 0.6 | 0.3 | 0.6 | 0.2 | 0.4 | 0.3 | 0.6 | 0.4 | 0.6 | 0.4 | 0.2 | 0.2 | Binding of serum SARS-green to linear peptides of protein X1 of SARS-CoV Urbani [3]: 0.1; Binding of serum SARS-green to looped/cyclic peptide (PEPSCAN-ELISA) [3]: 0.2; Binding of serum SARS-yellow to linear peptides of protein X1 of SARS-CoV Urbani [3]: 0.5; Binding of serum SARS-yellow to looped/cyclic peptide (PEPSCAN-ELISA) [3]: 0.2 |
| ALIYFLQCINACRII | 0.7 | 0.6 | 0.5 | 0.5 | 0.5 | 0.3 | 0.6 | 0.3 | 0.6 | 0.2 | 0.5 | 0.4 | 0.4 | 0.9 | 0.7 | 0.3 | 0.6 | 0.3 | 0.3 | 1.3 | Binding of serum SARS-green to linear peptides of protein X1 of SARS-CoV Urbani [3]: 0.1; Binding of serum SARS-green to looped/cyclic peptide (PEPSCAN-ELISA) [3]: 0.3; Binding of serum SARS-yellow to linear peptides of protein X1 of SARS-CoV Urbani [3]: 0.4; Binding of serum SARS-yellow to looped/cyclic peptide (PEPSCAN-ELISA) [3]: 0.1 |
